Tests used:
Type in all cases: in vivo
[1] = test system: Blackgrass; assay: post-emergence herbicide test; conditions: Alopecurus myosuroides, post-emergence, 0.25 lb/A; read-out: % plant inhibition
How it was run: (§1)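 Sown pans kept on a greenhouse bench with irrigation or subirrigation until plants reached two to three weeks, then sprayed at 170.3 kPa (10 psig). Spray mix held about 0.4% by volume emulsifier; total volume 1870 L/Ha. Result expressed as percent inhibition.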

[2] = test system: Downy Brome; assay: post-emergence herbicide test; conditions: Bromus tectorum, post-emergence, 0.25 lb/A; read-out: % plant inhibition
How it was run: as §1

[3] = test system: Wild Oats; assay: post-emergence herbicide test; conditions: Avena fatua, post-emergence, 0.25 lb/A; read-out: % plant inhibition
How it was run: as §1

[4] = test system: Velvetleaf; assay: post-emergence herbicide test; conditions: Abutilon theophrasti, post-emergence, 0.25 lb/A; read-out: % plant inhibition
How it was run: as §1

[5] = test system: Rape; assay: post-emergence herbicide test; conditions: post-emergence, 0.25 lb/A; read-out: % plant inhibition
How it was run: as §1

[6] = test system: Wheat; assay: post-emergence herbicide test; conditions: Triticum aestivum, post-emergence, 0.25 lb/A; read-out: % plant inhibition
How it was run: as §1

[7] = test system: Barnyardgrass; assay: post-emergence herbicide test; conditions: Echinochloa crus-galli, post-emergence, 0.25 lb/A; read-out: % plant inhibition
How it was run: as §1

[8] = test system: Green Foxtail; assay: post-emergence herbicide test; conditions: Setaria viridis, post-emergence, 0.25 lb/A; read-out: % plant inhibition
How it was run: as §1

[9] = test system: Bedstraw Catchweed; assay: post-emergence herbicide test; conditions: Galium aparine, post-emergence, 0.25 lb/A; read-out: % plant inhibition
How it was run: as §1

[10] = test system: Birdseye Speedwell; assay: post-emergence herbicide test; conditions: post-emergence, 0.25 lb/A; read-out: % plant inhibition
How it was run: as §1

[11] = test system: Seedling Johnsongrass; assay: post-emergence herbicide test; conditions: Sorghum halepense, post-emergence, 0.25 lb/A; read-out: % plant inhibition
How it was run: as §1

[12] = test system: Giant Foxtail; assay: post-emergence herbicide test; conditions: Setaria faberi, post-emergence, 0.25 lb/A; read-out: % plant inhibition
How it was run: as §1

[13] = test system: Cocklebur; assay: post-emergence herbicide test; conditions: Xanthium strumarium, post-emergence, 0.25 lb/A; read-out: % plant inhibition
How it was run: as §1

[14] = test system: Common Chickweed; assay: post-emergence herbicide test; conditions: post-emergence, 0.25 lb/A; read-out: % plant inhibition
How it was run: as §1

[15] = test system: Morning Glory; assay: post-emergence herbicide test; conditions: Ipomoea, post-emergence, 0.25 lb/A; read-out: % plant inhibition
How it was run: as §1

[16] = test system: Corn; assay: post-emergence herbicide test; conditions: Zea mays, post-emergence, 0.25 lb/A; read-out: % plant inhibition
How it was run: as §1

[17] = test system: Soybean; assay: post-emergence herbicide test; conditions: Glycine max, post-emergence, 0.25 lb/A; read-out: % plant inhibition
How it was run: as §1

[18] = test system: Blackgrass; assay: pre-emergence herbicide test; conditions: Alopecurus myosuroides, pre-emergence, 0.25 lb/A; read-out: % plant inhibition
How it was run: (§2)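 Seeds were sown on compacted topsoil in pans and covered with a topsoil layer carrying a known amount of active ingredient in acetone or water, applied before or after covering. Pans were bottom-watered on a greenhouse bench, and % inhibition was scored about 14 days after seeding and treatment.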

[19] = test system: Downy Brome; assay: pre-emergence herbicide test; conditions: Bromus tectorum, pre-emergence, 0.25 lb/A; read-out: % plant inhibition
How it was run: as §2

[20] = test system: Wild Oats; assay: pre-emergence herbicide test; conditions: Avena fatua, pre-emergence, 0.25 lb/A; read-out: % plant inhibition
How it was run: as §2

[21] = test system: Velvetleaf; assay: pre-emergence herbicide test; conditions: Abutilon theophrasti, pre-emergence, 0.25 lb/A; read-out: % plant inhibition
How it was run: as §2

[22] = test system: Rape; assay: pre-emergence herbicide test; conditions: pre-emergence, 0.25 lb/A; read-out: % plant inhibition
How it was run: as §2

[23] = test system: Wheat; assay: pre-emergence herbicide test; conditions: Triticum aestivum, pre-emergence, 0.25 lb/A; read-out: % plant inhibition
How it was run: as §2

[24] = test system: Barnyardgrass; assay: pre-emergence herbicide test; conditions: Echinochloa crus-galli, pre-emergence, 0.25 lb/A; read-out: % plant inhibition
How it was run: as §2

[25] = test system: Green Foxtail; assay: pre-emergence herbicide test; conditions: Setaria viridis, pre-emergence; 0.25 lb/A; read-out: % plant inhibition
How it was run: as §2

[26] = test system: Bedstraw Catchweed; assay: pre-emergence herbicide test; conditions: Galium aparine, pre-emergence, 0.25 lb/A; read-out: % plant inhibition
How it was run: as §2

[27] = test system: Birdseye Speedwell; assay: pre-emergence herbicide test; conditions: pre-emergence, 0.25 lb/A; read-out: % plant inhibition
How it was run: as §2

[28] = test system: Seedling Johnsongrass; assay: pre-emergence herbicide test; conditions: Sorghum halepense, pre-emergence, 0.25 lb/A; read-out: % plant inhibition
How it was run: as §2

[29] = test system: Giant Foxtail; assay: pre-emergence herbicide test; conditions: Setaria faberi, pre-emergence, 0.25 lb/A; read-out: % plant inhibition
How it was run: as §2

[30] = test system: Cocklebur; assay: pre-emergence herbicide test; conditions: Xanthium strumarium, pre-emergence, 0.25 lb/A; read-out: % plant inhibition
How it was run: as §2

[31] = test system: Common Chickweed; assay: pre-emergence herbicide test; conditions: pre-emergence, 0.25 lb/A; read-out: % plant inhibition
How it was run: as §2

[32] = test system: Morning Glory; assay: pre-emergence herbicide test; conditions: Ipomoea, pre-emergence, 0.25 lb/A; read-out: % plant inhibition
How it was run: as §2

[33] = test system: Corn; assay: pre-emergence herbicide test; conditions: Zea mays, pre-emergence, 0.25 lb/A; read-out: % plant inhibition
How it was run: as §2

[34] = test system: Soybean; assay: pre-emergence herbicide test; conditions: Glycine max, pre-emergence, 0.25 lb/A; read-out: % plant inhibition
How it was run: as §2

Compound	inhibition at 280.212 g/ha [1] [%]	inhibition at 280.212 g/ha [2] [%]	inhibition at 280.212 g/ha [3] [%]	inhibition at 280.212 g/ha [4] [%]	inhibition at 280.212 g/ha [5] [%]	inhibition at 280.212 g/ha [6] [%]	inhibition at 280.212 g/ha [7] [%]	inhibition at 280.212 g/ha [8] [%]	inhibition at 280.212 g/ha [9] [%]	inhibition at 280.212 g/ha [10] [%]	inhibition at 280.212 g/ha [11] [%]	inhibition at 280.212 g/ha [12] [%]	inhibition at 280.212 g/ha [13] [%]	inhibition at 280.212 g/ha [14] [%]	inhibition at 280.212 g/ha [15] [%]	inhibition at 280.212 g/ha [16] [%]	inhibition at 280.212 g/ha [17] [%]	inhibition at 280.212 g/ha [18] [%]	inhibition at 280.212 g/ha [19] [%]	inhibition at 280.212 g/ha [20] [%]	also measured
Cc1c(-c2cc(C(=O)OCC3CNCCO3)c(Cl)cc2F)nn(C)c1C(F)(F)F (stereo not drawn) [Compound 47]	20	20	30	100	65	15	5	70	90	95	50	5	100	95	70	50	30	25	20	5	inhibition at 280.212 g/ha [21]: 50%; inhibition at 280.212 g/ha [22]: 5%; inhibition at 280.212 g/ha [23]: 0%; inhibition at 280.212 g/ha [24]: 75%; inhibition at 280.212 g/ha [25]: 100%; inhibition at 280.212 g/ha [26]: 95%; inhibition at 280.212 g/ha [27]: 70%; inhibition at 280.212 g/ha [28]: 50%; inhibition at 280.212 g/ha [29]: 75%; inhibition at 280.212 g/ha [30]: 0%; inhibition at 280.212 g/ha [31]: 70%; inhibition at 280.212 g/ha [32]: 70%; inhibition at 280.212 g/ha [33]: 0%; inhibition at 280.212 g/ha [34]: 0%
CCOC(=O)CCCOC(=O)c1cc(-c2nn(C)c(C(F)(F)F)c2C)c(F)cc1Cl [Compound 24]	25	25	25	99	25	20	15	20	65	95	20	15	85	90	75	10	45	50	30	15	inhibition at 280.212 g/ha [21]: 60%; inhibition at 280.212 g/ha [22]: 95%; inhibition at 280.212 g/ha [23]: 7%; inhibition at 280.212 g/ha [24]: 20%; inhibition at 280.212 g/ha [25]: 100%; inhibition at 280.212 g/ha [26]: 95%; inhibition at 280.212 g/ha [27]: 100%; inhibition at 280.212 g/ha [28]: 10%; inhibition at 280.212 g/ha [29]: 35%; inhibition at 280.212 g/ha [30]: 40%; inhibition at 280.212 g/ha [31]: 100%; inhibition at 280.212 g/ha [32]: 0%; inhibition at 280.212 g/ha [33]: 0%; inhibition at 280.212 g/ha [34]: 0%
CCOC(=O)COC(=O)c1cc(-c2nn(C)c(C(F)(F)F)c2C)c(F)cc1Cl [Compound 17]	15	30	20	99	20	15	70	20	95	98	65	45	95	90	90	10	30	20	30	15	inhibition at 280.212 g/ha [21]: 50%; inhibition at 280.212 g/ha [22]: 90%; inhibition at 280.212 g/ha [23]: 0%; inhibition at 280.212 g/ha [24]: 0%; inhibition at 280.212 g/ha [25]: 35%; inhibition at 280.212 g/ha [26]: 100%; inhibition at 280.212 g/ha [27]: 100%; inhibition at 280.212 g/ha [28]: 5%; inhibition at 280.212 g/ha [29]: 40%; inhibition at 280.212 g/ha [30]: 10%; inhibition at 280.212 g/ha [31]: 100%; inhibition at 280.212 g/ha [32]: 50%; inhibition at 280.212 g/ha [33]: 0%; inhibition at 280.212 g/ha [34]: 5%

— US5672715A, “Herbicidal substituted 3-aryl-pyrazoles” (Monsanto Company, priority 1995, dated 1997)
